According to PubChem BioAssay AID2060358 (Molecular Pharmacology Branch, DTP, NCI, 2025):

System: 254851-301-R-J1-PDC spheroids, viability % test/control
Test: Anticancer human tumor 254851-301-R-J1-PDC patient-derived colon carcinoma cell line growth inhibition [TAK]
Settings: spheroids with HUVEC and MSC; for IC50: curve of first compound; for viability, T/C: stronger effect = lower value
Outline: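 Tumor cells were grown as spheroids with HUVEC and hMSC (60:25:15) and treated with targeted agents combined with TAK-243 or ipatasertib. Drugs were tested in half-log steps down from near the clinical Cmax, or from 10 microM where Cmax was unknown.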

[1] = second compound 0.3 µM, first compound 0.0316 µM
[2] = second compound 0.3 µM, first compound 0.1 µM
[3] = second compound 0.3 µM, first compound 0.316 µM
[4] = second compound 0.3 µM, first compound 1 µM
[5] = second compound 0.3 µM, first compound 3.16 µM
[6] = second compound 0.3 µM, first compound 10 µM
[7] = second compound 0.949 µM, first compound 0.0316 µM
[8] = second compound 0.949 µM, first compound 0.1 µM
[9] = second compound 0.949 µM, first compound 0.316 µM
[10] = second compound 0.949 µM, first compound 1 µM
[11] = second compound 0.949 µM, first compound 3.16 µM
[12] = second compound 0.949 µM, first compound 10 µM
[13] = second compound 3 µM, first compound 0.0316 µM
[14] = second compound 3 µM, first compound 0.1 µM
[15] = second compound 3 µM, first compound 0.316 µM
[16] = second compound 3 µM, first compound 1 µM
[17] = second compound 3 µM, first compound 3.16 µM
[18] = second compound 3 µM, first compound 10 µM
[19] = second compound 9.49 µM, first compound 0.0316 µM
[20] = second compound 9.49 µM, first compound 0.1 µM
[21] = second compound 9.49 µM, first compound 0.316 µM
[22] = second compound 9.49 µM, first compound 1 µM
[23] = second compound 9.49 µM, first compound 3.16 µM
[24] = second compound 9.49 µM, first compound 10 µM
[25] = second compound 30 µM, first compound 0.0316 µM
[26] = second compound 30 µM, first compound 0.1 µM
[27] = second compound 30 µM, first compound 0.316 µM
[28] = second compound 30 µM, first compound 1 µM
[29] = second compound 30 µM, first compound 3.16 µM
[30] = second compound 30 µM, first compound 10 µM
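Further: spheroids exposed to drugs for seven days before viability readout.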
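Wherever viability, T/C is given: 100% = DMSO vehicle control viability.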

CC(C)(C)c1nc(-c2cccc(NS(=O)(=O)c3c(F)cccc3F)c2F)c(-c2ccnc(N)n2)s1 + CC(C)NCC(C(=O)N1CCN(c2ncnc3c2C(C)CC3O)CC1)c1ccc(Cl)cc1
IC50 (second compound 0.3 µM): > 10 µM
IC50 (second compound 0.949 µM): > 10 µM
IC50 (second compound 3 µM): > 10 µM
IC50 (second compound 9.49 µM): > 10 µM
IC50 (second compound 30 µM): > 10 µM
viability, T/C [1]: 114%
viability, T/C [2]: 103%
viability, T/C [3]: 87.3%
viability, T/C [4]: 84.8%
viability, T/C [5]: 77%
viability, T/C [6]: 72%
viability, T/C [7]: 115%
viability, T/C [8]: 104%
viability, T/C [9]: 95.2%
viability, T/C [10]: 81%
viability, T/C [11]: 76%
viability, T/C [12]: 75.4%
viability, T/C [13]: 106%
viability, T/C [14]: 107%
viability, T/C [15]: 88.1%
viability, T/C [16]: 79.4%
viability, T/C [17]: 75.6%
viability, T/C [18]: 63.8%
viability, T/C [19]: 101%
viability, T/C [20]: 105%
viability, T/C [21]: 92.5%
viability, T/C [22]: 78.4%
viability, T/C [23]: 71.8%
viability, T/C [24]: 64.7%
viability, T/C [25]: 79%
viability, T/C [26]: 81.7%
viability, T/C [27]: 83.9%
viability, T/C [28]: 69.1%
viability, T/C [29]: 59.7%
viability, T/C [30]: 54.6%

CC(C)n1nc(-c2ccc3oc(N)nc3c2)c2c(N)ncnc21 + CC(C)NCC(C(=O)N1CCN(c2ncnc3c2C(C)CC3O)CC1)c1ccc(Cl)cc1
IC50 (second compound 0.3 µM): 0.0419 µM
IC50 (second compound 0.949 µM): 0.0311 µM
IC50 (second compound 3 µM): 0.0444 µM
IC50 (second compound 9.49 µM): 0.0357 µM
IC50 (second compound 30 µM): 0.0248 µM
viability, T/C (second compound 0.3 µM, first compound 0.000316 µM): 119%
viability, T/C (second compound 0.3 µM, first compound 0.001 µM): 101%
viability, T/C (second compound 0.3 µM, first compound 0.00316 µM): 93.3%
viability, T/C (second compound 0.3 µM, first compound 0.01 µM): 78.4%
viability, T/C [1]: 54.3%
viability, T/C [2]: 32.4%
viability, T/C (second compound 0.949 µM, first compound 0.000316 µM): 102%
viability, T/C (second compound 0.949 µM, first compound 0.001 µM): 101%
viability, T/C (second compound 0.949 µM, first compound 0.00316 µM): 94.7%
viability, T/C (second compound 0.949 µM, first compound 0.01 µM): 78.3%
viability, T/C [7]: 49.3%
viability, T/C [8]: 33.6%
viability, T/C (second compound 3 µM, first compound 0.000316 µM): 100%
viability, T/C (second compound 3 µM, first compound 0.001 µM): 105%
viability, T/C (second compound 3 µM, first compound 0.00316 µM): 85.2%
viability, T/C (second compound 3 µM, first compound 0.01 µM): 72.7%
viability, T/C [13]: 57.5%
viability, T/C [14]: 36.2%
viability, T/C (second compound 9.49 µM, first compound 0.000316 µM): 96.6%
viability, T/C (second compound 9.49 µM, first compound 0.001 µM): 109%
viability, T/C (second compound 9.49 µM, first compound 0.00316 µM): 90.8%
viability, T/C (second compound 9.49 µM, first compound 0.01 µM): 76.6%
viability, T/C [19]: 53%
viability, T/C [20]: 31.9%
viability, T/C (second compound 30 µM, first compound 0.000316 µM): 88.1%
viability, T/C (second compound 30 µM, first compound 0.001 µM): 86.5%
viability, T/C (second compound 30 µM, first compound 0.00316 µM): 84.5%
viability, T/C (second compound 30 µM, first compound 0.01 µM): 69.6%
viability, T/C [25]: 44.9%
viability, T/C [26]: 31.1%

CCCS(=O)(=O)Nc1ccc(F)c(C(=O)c2c[nH]c3ncc(-c4ccc(Cl)cc4)cc23)c1F + CC(C)NCC(C(=O)N1CCN(c2ncnc3c2C(C)CC3O)CC1)c1ccc(Cl)cc1
IC50 (second compound 0.3 µM): > 100 µM
IC50 (second compound 0.949 µM): > 100 µM
IC50 (second compound 3 µM): > 100 µM
IC50 (second compound 9.49 µM): > 100 µM
IC50 (second compound 30 µM): > 100 µM
viability, T/C [3]: 92.5%
viability, T/C [4]: 90.3%
viability, T/C [5]: 63.9%
viability, T/C [6]: 68.4%
viability, T/C (second compound 0.3 µM, first compound 31.6 µM): 38.1%
viability, T/C (second compound 0.3 µM, first compound 100 µM): 85.7%
viability, T/C [9]: 99.2%
viability, T/C [10]: 95.1%
viability, T/C [11]: 79.4%
viability, T/C [12]: 64.8%
viability, T/C (second compound 0.949 µM, first compound 31.6 µM): 30.2%
viability, T/C (second compound 0.949 µM, first compound 100 µM): 76.8%
viability, T/C [15]: 79.7%
viability, T/C [16]: 88.8%
viability, T/C [17]: 70.3%
viability, T/C [18]: 67.9%
viability, T/C (second compound 3 µM, first compound 31.6 µM): 20.2%
viability, T/C (second compound 3 µM, first compound 100 µM): 82.5%
viability, T/C [21]: 95.3%
viability, T/C [22]: 85.3%
viability, T/C [23]: 71%
viability, T/C [24]: 51.5%
viability, T/C (second compound 9.49 µM, first compound 31.6 µM): 52.3%
viability, T/C (second compound 9.49 µM, first compound 100 µM): 83%
viability, T/C [27]: 91.5%
viability, T/C [28]: 92.8%
viability, T/C [29]: 82.6%
viability, T/C [30]: 51.8%
viability, T/C (second compound 30 µM, first compound 31.6 µM): 26.7%
viability, T/C (second compound 30 µM, first compound 100 µM): 80.7%
